The record followed here is patent publication US8835474B2, “Remedy for overactive bladder comprising acetic acid anilide derivative as the active ingredient” (Astellas Pharma Inc., priority 2002, dated 2014).

As usually defined, the EC50 is the concentration giving half of the maximal effect. A low value points to higher potency in that assay.

For experiment [1], the system named is isolated rat bladder smooth muscle. The experiment in a line: Isolated rat bladder smooth muscle relaxation test, antagonism test to contraction by carbachol. The format is cell-based. To be noted: for EC50: Rattus norvegicus; for EC50 / Maximum Relaxation Rate: contraction by 10^−6 M carbachol, relaxation by 10^−4 M papaverine defined as 100%; for Comparison of Action Strength: compared in the concentration giving a relaxation rate of 15.7%, CGP-12,177A = 1; for Concentration where the compound showed a relaxation rate of 15.7%: maximum relaxation rate of CGP-12,177A. The protocol: (§1) The test was conducted by referring to The Journal of Urology, 1999, volume 161, page 680.
(§2) Male rats of Wistar strain of 10 to 11 weeks age were sacrificed by depletion, whole bladder was isolated by laparotomy and bladder sections each being in a size of about 3×10 mm were prepared in a nutrient solution which was well oxygenated with 95% O2 and 5% CO2 (Krebs-Henseleit solution (118.4 mM NaCl, 4.7 mM KCl, 1.2 mM KH2PO4; 1.2 mM MgSO4, 2.5 mM CaCl2, 25.0 mM NaHCO3 and 11.1 mM glucose)). The section was hung in a Magnus tube in which a nutrient solution (Krebs-Henseleit solution) of 37° C. into which 95% O2 and 5% CO2 were aerated, stabilized for 30 to 60 minutes with a load of 1 g and 10^−6 M carbachol (CCh) or 40 mM potassium chloride (KCl) was repeatedly applied thereto whereupon it was confirmed that reactivity to CCh or KCl became almost constant. After contraction by 10^−6 M CCh or 40 mM KCl was induced and the generated tension was stabilized, a test drug (compound A or CGP-12, 177A) was cumulatively administered in 10-fold ratio with intervals of about 10 minutes and the relaxation reaction was observed. After completion of observation of relaxation reaction at maximum concentration of the test drug, 10^−4 M papaverine was added to induce the maximum relaxation and a relaxation rate was calculated where the relaxation reaction was defined as 100%.

For experiment [2] the test system is unchanged. The experiment in a line: Isolated rat bladder smooth muscle relaxation test, antagonism test to contraction by potassium chloride. The format is cell-based. The conditions noted are these: for EC50: Rattus norvegicus; for EC50 / Maximum Relaxation Rate: contraction by 40 mM potassium chloride, relaxation by 10^−4 M papaverine defined as 100%; for Comparison of Action Strength: compared in the concentration giving a relaxation rate of 17.4%, CGP-12,177A = 1; for Concentration where the compound showed a relaxation rate of 17.4%: maximum relaxation rate of CGP-12,177A. The protocol:
as §1, §2

The subject of experiment [3] is rhythmic bladder contraction. The experiment in a line: Rat rhythmic bladder contraction measurement test. The experiment is classed as in vivo. The procedure: The test was conducted by referring to European Journal of Pharmacology, 2000, volume 407, page 175. Female rats (225 to 290 g) of Wistar strain was used for the test. Under anesthetization with urethane, right and left ureters were ligated and cut and, after that, a polyethylene cannula was inserted from external urinary meatus and fixed. One end of the fixed cannula was connected to a pressure transducer via a three-way cock and pressure in the bladder was measured. Another end thereof was connected to a syringe pump and a physiological saline solution was continuously infused at a constant rate into bladder whereupon rhythmic bladder contraction was induced. The continuous infusion of a physiological saline solution was stopped after a rhythmic bladder contraction was noted. After the rhythmic bladder contraction was stabilized, drug or vehicle was administered from a catheter for administration of drug inserted into femoral vein. The compound A was intravenously administered in increased doses where the ratio was 3 (0.03, 0.1, 0.3, 1 and 3 mg/kg). A group to which vehicle was administered was used as a control group. Parameters for evaluation were number of times and contraction pressure of bladder contraction during 10 minutes from 5 to 15 minutes after the administration of the drug and each group was conducted in n=5. The result is shown in terms of mean value±standard error and Student t-test was conducted for comparison between the two groups.

Experiment [4] has as its system cyclophosphamide-induced overactive bladder model rat. The experiment in a line: Measurement of urination function of overactive bladder model rat induced by cyclophosphamide. The conditions noted are these: 1 mg/kg i.v.; 30 minutes after administration versus 30 minutes before. The experiment is classed as in vivo. The protocol:
Overactive bladder model rats induced by cyclophosphamide were prepared by referring to British Journal of Pharmacology, 2000, volume 130, page 331 and the following test was conducted. Female rats (220 to 230 g) of Wistar strain were used for the test. Under anesthetization with pentobarbital sodium, a catheter for infusion of physiological saline solution and for measurement of pressure in bladder was inserted into bladder from the top of the bladder and fixed while a catheter for administration of a drug was inserted into carotid vein and fixed. Cyclophosphamide (CYP) was administered into abdominal cavity and, after being recovered, the rats were returned to a feeding cage. On the next day of the operation, one end of the catheter inserted into bladder of the rat was connected to a syringe pump via a three-way cock and a physiological saline solution was continuously infused whereby |micturition| reflex was induced. Another end was connected to a pressure transducer and pressure in the bladder was measured. After the micturition reflex was stabilized, 1 mg/kg of the compound A was administered from a catheter for administration of drug which was inserted into carotid vein. Parameter for the evaluation was an average interval for urination from administration of the drug until 30 minutes thereafter. […]

Where [5] appears, read: contraction by potassium chloride.

A value given as a limit tells only on which side of the number the result lay.

`CC(C)(C)NC[C@H](O)COc1cccc2[nH]c(=O)[nH]c12` [CGP-12, 177A, reference compound]: in experiment [1], the EC50 was over 100 µM and the “Maximum Relaxation Rate” value is reported as 15.7%. Further, in experiment [1] (contraction by carbachol), the “Comparison of Action Strength” value is 1 and the “Concentration where the compound showed a relaxation rate of 15.7%” value is 10^−4 M. For the same compound, in experiment [2], the EC50 is over 100 µM and the “Maximum Relaxation Rate” value is recorded as 17.4%. Further, in experiment [2] (setting [5]), the “Comparison of Action Strength” value is on record as 1 and the “Concentration where the compound showed a relaxation rate of 17.4%” value is 10^−4 M.
For `Nc1nc(CC(=O)Nc2ccc(CCNC[C@H](O)c3ccccc3)cc2)cs1` [Compound A, (R)-2-(2-aminothiazol-4-yl)-4′-[2-[(2-hydroxy-2-phenylethyl)amino]-ethyl]acetic acid anilide], the “action of decreasing the contraction frequency versus control group” value in experiment [3] (3 mg/kg i.v., Student t-test, p<0.05) is listed as “significant”. In experiment [3] (i.v. 0.03, 0.1, 0.3, 1 and 3 mg/kg, 5 to 15 minutes after administration, anesthetized female Wistar rats), the “contraction frequency of rhythmic bladder contraction” value is “decreased on a dose-dependent manner”. For the same compound, the “contraction pressure of rhythmic bladder contraction” value in experiment [3] (until intravenous administration of 3 mg/kg) is on record as “did not affect”. Besides, in experiment [1], the EC50 was determined as 5.2 µM and the “Maximum Relaxation Rate” value worked out at 94.0%. For the same compound, the relaxation action entry in experiment [1] (antagonism test to contraction by carbachol) is given as “strong relaxation action”. Besides, in experiment [1] (contraction by carbachol), the “action strength as compared with CGP-12,177A” value was 270 fold, the “Comparison of Action Strength” value was 270 and the “Concentration where the compound showed a relaxation rate of 15.7%” value came to 3.7e-07 M. Moreover, in experiment [2], the half-maximal effective concentration (EC50) worked out at 11 µM and the “Maximum Relaxation Rate” value worked out at 69.1%. The relaxation action result in experiment [2] (antagonism test to contraction by potassium chloride) is “strong relaxation action”. For the same compound, in experiment [2] (setting [5]), the “action strength as compared with CGP-12,177A” value was found to be 383 fold, the “Comparison of Action Strength” value came to 383 and the “Concentration where the compound showed a relaxation rate of 17.4%” value is 2.6e-07 M. The “elongation of micturition interval” value in experiment [4] is recorded as 17.3%.
